The values below are quoted from earlier work in US20250049743A1, “METHOD OF PRODUCING AN ORAL OSMOTIC PHARMACEUTICAL DELIVERY SYSTEM AND A PHARMACEUTICAL BATCH PRODUCED USING THE SAME” (United Therapeutics Corporation, priority 2023, published 2025).

For this data set the following is noted: treprostinil as the free acid.

For the molecule `CCCCC[C@H](O)CC[C@@H]1[C@H]2Cc3cccc(OCC(=O)O)c3C[C@H]2C[C@H]1O` [treprostinil], the absolute oral bioavailability result was “less than 10%”.
